Results taken from patent publication US20250098679A1, “HERBICIDAL PYRIDONE DERIVATIVES” (SYNGENTA CROP PROTECTION AG, priority 2021, published 2025).

Experiments:
Type in all cases: in vivo
Conditions in all cases: evaluated after 13 days
Setaria faberi (SETFA) [1] = assay: Pre-emergence Test, Setaria faberi (SETFA)
[2] = test system: Echinochloa crus-galli (ECHCG); assay: Pre-emergence Test, Echinochloa crus-galli (ECHCG)
Zea mays (ZEAMX) [3] = assay: Pre-emergence Test, Zea mays (ZEAMX)
[4] = test system: Ipomoea hederacea (IPOHE); assay: Pre-emergence Test, Ipomoea hederacea (IPOHE)
[5] = test system: Amaranthus palmeri (AMAPA); assay: Pre-emergence Test, Amaranthus palmeri (AMAPA)
[6] = test system: Amaranthus retoflexus (AMARE); assay: Pre-emergence Test, Amaranthus retoflexus (AMARE)
Setaria faberi (SETFA) [7] = assay: Post-emergence Test, Setaria faberi (SETFA); set-up: key to percentage damage caused to the plant, SETFA (five-point scale): 5=81-100%, 4=61-80%, 3=41-60%, 2=21-40%, 1=0-20% damage
Outline: (§1)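 Scores are percentage plant damage on a 1–5 scale (1=0-20%, 2=21-40%, 3=41-60%, 4=61-80%, 5=81-100%), read 13 days after treatment. Pots received a spray at 1000 g/ha unless otherwise stated, formulated in acetone/water (50:50) containing 0.5% Tween 20.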

[8] = test system: Echinochloa crus-galli (ECHCG); assay: Post-emergence Test, Echinochloa crus-galli (ECHCG); set-up: key to percentage damage caused to the plant, ECHCG (five-point scale): 5=81-100%, 4=61-80%, 3=41-60%, 2=21-40%, 1=0-20% damage
Outline: as §1

Zea mays (ZEAMX) [9] = assay: Post-emergence Test, Zea mays (ZEAMX); set-up: key to percentage damage caused to the plant, ZEAMX (five-point scale): 5=81-100%, 4=61-80%, 3=41-60%, 2=21-40%, 1=0-20% damage
Outline: as §1

[10] = test system: Ipomoea hederacea (IPOHE); assay: Post-emergence Test, Ipomoea hederacea (IPOHE); set-up: key to percentage damage caused to the plant, IPOHE (five-point scale): 5=81-100%, 4=61-80%, 3=41-60%, 2=21-40%, 1=0-20% damage
Outline: as §1

[11] = test system: Amaranthus palmeri (AMAPA); assay: Post-emergence Test, Amaranthus palmeri (AMAPA); set-up: key: 5=81-100%, 4=61-80%, 3=41-60%, 2=21-40%, 1=0-20% damage
Outline: as §1

[12] = test system: Amaranthus retoflexus (AMARE); assay: Post-emergence Test, Amaranthus retoflexus (AMARE); set-up: key to percentage damage caused to the plant, AMARE (five-point scale): 5=81-100%, 4=61-80%, 3=41-60%, 2=21-40%, 1=0-20% damage
Outline: as §1

Structure (SMILES)	Pre-emergence Test SETFA, percentage damage caused to the plant (five-point scale) (Setaria faberi (SETFA) [1]; 1000 g/ha)	Pre-emergence Test ECHCG, percentage damage caused to the plant (five-point scale) ([2]; 1000 g/ha)	Pre-emergence Test ZEAMX, percentage damage caused to the plant (five-point scale) (Zea mays (ZEAMX) [3]; 1000 g/ha)	Pre-emergence Test IPOHE, percentage damage caused to the plant (five-point scale) ([4]; 1000 g/ha)	Pre-emergence Test AMAPA, percentage damage caused to the plant (five-point scale) ([5]; 1000 g/ha)	Pre-emergence Test AMARE, percentage damage caused to the plant (five-point scale) ([6]; 1000 g/ha)	percentage damage caused to the plant, SETFA (five-point scale) (Setaria faberi (SETFA) [7]; 250 g/Ha)	percentage damage caused to the plant, SETFA (five-point scale) (Setaria faberi (SETFA) [7]; 1000 g/ha)	percentage damage caused to the plant, ECHCG (five-point scale) ([8]; 250 g/Ha)	percentage damage caused to the plant, ECHCG (five-point scale) ([8]; 1000 g/ha)	percentage damage caused to the plant, ZEAMX (five-point scale) (Zea mays (ZEAMX) [9]; 250 g/Ha)	percentage damage caused to the plant, ZEAMX (five-point scale) (Zea mays (ZEAMX) [9]; 1000 g/ha)	percentage damage caused to the plant, IPOHE (five-point scale) ([10]; 250 g/Ha)	percentage damage caused to the plant, IPOHE (five-point scale) ([10]; 1000 g/ha)	percentage damage caused to the plant, AMAPA (five-point scale) ([11]; 250 g/Ha)	percentage damage caused to the plant, AMAPA (five-point scale) ([11]; 1000 g/ha)	percentage damage caused to the plant, AMARE (five-point scale) ([12]; 250 g/Ha)	percentage damage caused to the plant, AMARE (five-point scale) ([12]; 1000 g/ha)	further results
CCn1c(Cn2ccc(OCCOC)n2)cc(=O)c(C(=O)O)c1-c1ccc(Cl)c(Cl)c1 [Compound 161, 2-(3,4-dichlorophenyl)-1-ethyl-6-[[3-(2-methoxyethoxy)pyrazol-1-yl]methyl]-4-oxo-pyridine-3-carboxylic acid]	4 (4=61-80%)	3 (3=41-60%)	0	3 (3=41-60%)	1 (1=0-20%)	0	2 (2=21-40%)	3 (3=41-60%)	2 (2=21-40%)	3 (3=41-60%)	1 (1=0-20%)	1 (1=0-20%)	1 (1=0-20%)	3 (3=41-60%)	0	1 (1=0-20%)	1 (1=0-20%)	0	Pre-emergence Test SETFA, percentage damage caused to the plant (five-point scale) (Setaria faberi (SETFA) [1]; 250 g/Ha (*)): 1 (1=0-20%); Pre-emergence Test ECHCG, percentage damage caused to the plant (five-point scale) ([2]; 250 g/Ha (*)): 0; Pre-emergence Test ZEAMX, percentage damage caused to the plant (five-point scale) (Zea mays (ZEAMX) [3]; 250 g/Ha (*)): 0; Pre-emergence Test IPOHE, percentage damage caused to the plant (five-point scale) ([4]; 250 g/Ha (*)): 0; Pre-emergence Test AMAPA, percentage damage caused to the plant (five-point scale) ([5]; 250 g/Ha (*)): 0; Pre-emergence Test AMARE, percentage damage caused to the plant (five-point scale) ([6]; 250 g/Ha (*)): 0
CCn1c(Cn2cc(C)c(C(F)(F)F)n2)cc(=O)c(C(=O)O)c1-c1ccc(Cl)c(Cl)c1 [Compound 96, 2-(3,4-dichlorophenyl)-1-ethyl-6-[[4-methyl-3-(trifluoromethyl)pyrazol-1-yl]methyl]-4-oxo-pyridine-3-carboxylic acid]	3 (3=41-60%)	3 (3=41-60%)	0	1 (1=0-20%)	1 (1=0-20%)	1 (1=0-20%)	0	3 (3=41-60%)	2 (2=21-40%)	2 (2=21-40%)	0	4 (4=61-80%)	0	0	0	0	0	1 (1=0-20%)	
CCOC(=O)c1cc(C(=O)OCC)n(Cc2cc(=O)c(C(=O)O)c(-c3ccc(Cl)c(Cl)c3)n2CC)n1 [Compound 112, 6-[[3,5-bis(ethoxycarbonyl)pyrazol-1-yl]methyl]-2-(3,4-dichlorophenyl)-1-ethyl-4-oxo-pyridine-3-carboxylic acid]	0	0	0	0	1 (1=0-20%)	1 (1=0-20%)		1 (1=0-20%)		2 (2=21-40%)		0		2 (2=21-40%)		1 (1=0-20%)		1 (1=0-20%)	
